# Reference: patent US8999966B2, “Compounds that are ERK inhibitors” (Merck Sharp & Dohme Corp., priority 2010, dated 2015)
# Biological target: fully phosphorylated, active Mouse ERK2 protein (Mus musculus, UniProt P63085)
# Assay: Active ERK2 assay (AERK2), IMAP format
# Format: biochemical
# Details: activated ERK2, IMAP fluorescence polarization, 30 μM ATP
# Method: 14 μl of kinase buffer (10 mM Tris.HCl pH 7.2, 10 mM MgCl2, 0.01% Tween-20, 1 mM DTT) containing 0.4 ng unphosphorylated Mouse ERK2 protein can be added to each well of a black 384-well assay plate. […] DMSO concentration during initial incubation is 6.7%. ERK2 activity can be determined to be insensitive to DMSO concentrations up to 20%. ERK2 can then be activated and it's kinase activity can be measured by the addition of 10 μl kinase buffer with the following components (final concentration per reaction): 2 ng active (phosphorylated) human MEK1 protein and 4 μM (total) ERK2 IMAP substrate peptides (3.9 μM unlabeled IPTTPITTTYFFFK-CONH2 and 100 nM IPTTPITTTYFFFK(5-carboxyfluorescein)-CONH2) and 30 μM ATP. DMSO concentration during ERK activation can be 4%. After one hour, reactions can be terminated by addition of 60 μl IMAP detections beads in binding buffer (Molecular Devices). Binding can be allowed to equilibrate for 30 minutes before reading the plate on an LJL Analyst Fluorescence Polarization plate reader. […] Active compounds can be reconfirmed in an independent assay.
# Activated ERK2 activity was also determined in the IMAP assay format using the procedure outlined above. 1 μl of 25× compound was added to 14 μl of kinase buffer containing 0.25 ng fully phosphorylated, active Mouse ERK2 protein. Following a 30 minute incubation, the reactions were initiated by addition of 10 μl of kinase buffer containing 1 μM ERK2 IMAP substrate peptide (0.9 μM unlabeled IPTTPITTTYFFFK-CONH2 and 100 nM IPTTPITTTYFFFK(5-carboxyfluorescein)-CONH2) and 30 μM ATP. Reactions proceeded for 30 minutes before termination by addition of 60 μl IMAP detection beads in binding buffer. Plates were read as above after 30 minute binding equilibration. Active compounds were reconfirmed in an independent assay.
# Sequence of fully phosphorylated, active Mouse ERK2 protein (P63085 whole entry): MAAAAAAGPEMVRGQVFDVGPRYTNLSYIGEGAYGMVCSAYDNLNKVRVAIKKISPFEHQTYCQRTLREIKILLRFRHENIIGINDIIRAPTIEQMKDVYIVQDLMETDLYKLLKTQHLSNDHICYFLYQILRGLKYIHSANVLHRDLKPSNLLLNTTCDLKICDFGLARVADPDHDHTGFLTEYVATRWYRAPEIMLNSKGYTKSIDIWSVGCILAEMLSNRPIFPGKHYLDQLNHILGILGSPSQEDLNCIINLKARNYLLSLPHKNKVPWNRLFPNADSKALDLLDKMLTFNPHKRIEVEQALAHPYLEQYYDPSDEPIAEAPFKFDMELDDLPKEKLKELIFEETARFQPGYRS
row,IC50 [nM],Structure (SMILES)
1,> 1000,"CCn1cc(-c2n[nH]c3ccc(-c4nnc([C@@H]5CCCN(Cc6cc7ccccc7n6C)C5)o4)cc23)cn1 [Example 342, 3-(1-ETHYL-1H-PYRAZOL-4- YL)-5-[5-[1-[(1-METHYL-1H- INDOL-2-YL)METHYL]-3(R)- PIPERIDINYL]-1,3,4- OXADIAZOL-2-YL]-1H- INDAZOLE]"
2,≥ 504,"Clc1cc(-c2n[nH]c3ccc(-c4nnc([C@@H]5CCCN(CC6CCCCC6)C5)o4)cc23)ccn1 [Example 362, 3-(2-CHLORO-4-PYRIDINYL)- 5-[5-[1- (CYCLOHEXYLMETHYL)- 3(R)-PIPERIDINYL]-1,3,4- OXADIAZOL-2-YL]-1H- INDAZOLE]"
3,≥ 504,"C1=CCN(Cc2ccon2)[C@@H](c2nc(-c3ccc4[nH]nc(-c5ccc6c(c5)CCO6)c4c3)n[nH]2)C1 [Example 256, 3-(2,3-DIHYDRO-5- BENZOFURANYL)-5-[5- [1,2,3,6-TETRAHYDRO-1-(3- ISOXAZOLYLMETHYL)-2(R)- PYRIDINYL]-1H-1,2,4- TRIAZOL-3-YL]-1H- INDAZOLE]"
4,≥ 504,"CC1(C)Cc2cc(-c3n[nH]c4ccc(-c5n[nH]c([C@@H]6CCCN(Cc7c(F)cccc7F)C6)n5)cc34)ccc2O1 [Example 300, 5-[5-[1-[(2,6- DIFLUOROPHENYL)METHYL]- 3(R)-PIPERIDINYL]-1H- 1,2,4-TRIAZOL-3-YL]-3-(2,3- DIHYDRO-2,2-DIMETHYL-5- BENZOFURANYL)-1H- INDAZOLE]"
5,> 1000,"CCn1cc(-c2n[nH]c3ccc(-c4nnc([C@@H]5CCCN(Cc6csc7ccccc67)C5)o4)cc23)cn1 [Example 339, 5-[5-[1-(BENZO[b]THIEN-3- YLMETHYL)-3(R)- PIPERIDINYL]-1,3,4- OXADIAZOL-2-YL]-3-(1- ETHYL-1H-PYRAZOL-4-YL)- 1H-INDAZOLE]"
6,> 1000,"COc1cccc(F)c1CN1CCCC(c2ccn(-c3ccc4[nH]nc(-c5ccncc5)c4c3)n2)C1 (centres unmarked) [Example 368, 5-[3-[1-[(2-FLUORO-6- METHOXYPHENYL)METHYL]- 3-PIPERIDINYL]-1H- PYRAZOL-1-YL]-3-(4- PYRIDINYL)-1H-INDAZOLE]"
7,0.3 to 10.4,"Fc1ccccc1CN1CCOC(c2cn(-c3ccc4[nH]nc(-c5ccncc5)c4c3)nn2)C1 (centres unmarked) [Example 249, 5-[4-[4-[(2- FLUOROPHENYL)METHYL]- 2-MORPHOLINYL]-1H-1,2,3- TRIAZOL-1-YL]-3-(4- PYRIDINYL)-1H-INDAZOLE]"
8,≥ 504,"CC(C)Oc1ccc(-c2n[nH]c3ccc(-c4n[nH]c([C@@H]5CCCN(Cc6cccs6)C5)n4)cc23)cc1 [Example 304, 3-[4-(1- METHYLETHOXY)PHENYL]- 5-[5-[1-(2- THIENYLMETHYL)-3(R)- PIPERIDINYL]-1H-1,2,4- TRIAZOL-3-YL]-1H- INDAZOLE]"
9,≥ 504,"Fc1cccc(F)c1CN1CCC[C@@H](c2nc(-c3ccc4[nH]nc(-c5ccc(C(F)(F)F)cc5)c4c3)n[nH]2)C1 [Example 301, 5-[5-[1-[(2,6- DIFLUOROPHENYL)METHYL]- 3(R)-PIPERIDINYL]-1H- 1,2,4-TRIAZOL-3-YL]-3-[4- (TRIFLUOROMETHYL)PHEN- YL]-1H-INDAZOLE]"
10,≥ 504,"Clc1cc(-c2n[nH]c3ccc(-c4nnc([C@@H]5CCCN(Cc6ccncn6)C5)o4)cc23)ccn1 [Example 360, 3-(2-CHLORO-4-PYRIDINYL)- 5-[5-[1-(4- PYRIMIDINYLMETHYL)- 3(R)-PIPERIDINYL]-1,3,4- OXADIAZOL-2-YL]-1H- INDAZOLE]"
11,0.3 to 10.4,"Fc1ccccc1CN1CCCC(c2nnc(-c3ccc4[nH]nc(-c5ccncc5)c4c3)o2)C1 (centres unmarked) [Example 306, 5-[5-[1-[(2- FLUOROPHENYL)METHYL]- 3-PIPERIDINYL]-1,3,4- OXADIAZOL-2-YL]-3-(4- PYRIDINYL)-1H-INDAZOLE]"
12,≥ 504,"COc1cccc(CN2CCC[C@@H](c3nnc(-c4ccc5[nH]nc(-c6ccnc(Cl)c6)c5c4)o3)C2)n1 [Example 361, 3-(2-CHLORO-4-PYRIDINYL)- 5-[5-[1-[(6-METHOXY-2- PYRIDINYL)METHYL]-3(R)- PIPERIDINYL]-1,3,4- OXADIAZOL-2-YL]-1H- INDAZOLE]"
13,≥ 504,"CC(C)Oc1ccc(-c2n[nH]c3ccc(-c4n[nH]c([C@@H]5CCCN(Cc6c(F)cccc6F)C5)n4)cc23)cc1 [Example 299, 5-[5-[1-[(2,6- DIFLUOROPHENYL)METHYL]- 3(R)-PIPERIDINYL]-1H- 1,2,4-TRIAZOL-3-YL]-3-[4-(1- METHYLETHOXY)PHENYL]- 1H-INDAZOLE]"
14,≥ 504,"CC(=O)Nc1cc(-c2n[nH]c3ccc(-c4nnc([C@@H]5CCCN(Cc6ccc7nccnc7c6)C5)o4)cc23)ccc1O [Example 316, N-[2-HYDROXY-5-[5-[5-[1-(6- QUINOXALINYLMETHYL)- 3(R)-PIPERIDINYL]-1,3,4- OXADIAZOL-2-YL]-1H- INDAZOL-3- YL]PHENYL]ACETAMIDE]"
15,> 1000,"CCn1cc(-c2n[nH]c3ccc(-c4nnc([C@@H]5CCCN(Cc6cn(C)c7ccccc67)C5)o4)cc23)cn1 [Example 341, 3-(1-ETHYL-1H-PYRAZOL-4- YL)-5-[5-[1-[(1-METHYL-1H- INDOL-3-YL)METHYL]-3(R)- PIPERIDINYL]-1,3,4- OXADIAZOL-2-YL]-1H- INDAZOLE]"
16,> 1000,"Cn1c(CN2CCC[C@@H](c3nnc(-c4ccc5[nH]nc(-c6ccc7nccn7c6)c5c4)o3)C2)cc2ccccc21 [Example 329, 3-IMIDAZO[1,2-a]PYRIDIN-6- YL-5-[5-[1-[(1-METHYL-1H- INDOL-2-YL)METHYL]-3(R)- PIPERIDINYL]-1,3,4- OXADIAZOL-2-YL]-1H- INDAZOLE]"
17,> 1000,"c1ccc2oc(CN3CCC[C@@H](c4nnc(-c5ccc6[nH]nc(-c7ccc8occc8c7)c6c5)o4)C3)cc2c1 [Example 350, 3-(5-BENZOFURANYL)-5-[5- [1-(2- BENZOFURANYLMETHYL)- 3(R)-PIPERIDINYL]-1,3,4- OXADIAZOL-2-YL]-1H- INDAZOLE]"
18,0.3 to 10.4,"COc1cccc(F)c1CN1CCC[C@@H](c2nnc(-c3ccc4[nH]nc(-c5ccc(O)c(NC(C)=O)c5)c4c3)o2)C1 [Example 314, N-[5-[5-[5-[1-[(2-FLUORO-6- METHOXYPHENYL)METHYL]- 3(R)-PIPERIDINYL]-1,3,4- OXADIAZOL-2-YL]-1H- INDAZOL-3-YL]-2- HYDROXYPHENYL] ACETAMIDE]"
19,> 1000,"c1cc2cc(-c3n[nH]c4ccc(-c5nnc([C@@H]6CCCN(CC7CCCCC7)C6)o5)cc34)ccc2o1 [Example 352, 3-(5-BENZOFURANYL)-5-[5- [1-(CYCLOHEXYLMETHYL)- 3(R)-PIPERIDINYL]-1,3,4- OXADIAZOL-2-YL]-1H- INDAZOLE]"
20,≥ 504,"Clc1cc(-c2n[nH]c3ccc(-c4nnc([C@@H]5CCCN(Cc6cc7ccccc7o6)C5)o4)cc23)ccn1 [Example 357, 5-[5-[1-(2- BENZOFURANYLMETHYL)- 3(R)-PIPERIDINYL]-1,3,4- OXADIAZOL-2-YL]-3-(2- CHLORO-4-PYRIDINYL)-1H- INDAZOLE]"
21,> 1000,"COc1cccc(F)c1CN1CCCCC1c1nc(-c2ccc3[nH]nc(-c4ccc(OC(C)C)cc4)c3c2)n[nH]1 (centres unmarked) [Example 259, 5-[5-[1-[(2-FLUORO-6- METHOXYPHENYL)METHYL]- 2-PIPERIDINYL]-1H-1,2,4- TRIAZOL-3-YL]-3-[4-(1- METHYLETHOXY)PHENYL]- 1H-INDAZOLE]"
22,≥ 504,"COc1cccc(F)c1CN1CCC[C@@H](c2nnc(-c3ccc4[nH]nc(-c5ccc6occc6c5)c4c3)o2)C1 [Example 349, 3-(5-BENZOFURANYL)-5-[5- [1-[(2-FLUORO-6- METHOXYPHENYL)METHYL]- 3(R)-PIPERIDINYL]-1,3,4- OXADIAZOL-2-YL]-1H- INDAZOLE]"
23,> 1000,"c1cc(CN2CCC[C@@H](c3nnc(-c4ccc5[nH]nc(-c6ccc7occc7c6)c5c4)o3)C2)ncn1 [Example 351, 3-(5-BENZOFURANYL)-5-[5- [1-(4- PYRIMIDINYLMETHYL)- 3(R)-PIPERIDINYL]-1,3,4- OXADIAZOL-2-YL]-1H- INDAZOLE]"
24,≥ 504,"Cc1n[nH]c2ccc(-c3n[nH]c4ccc(-n5cc([C@@H]6CCCN(Cc7c(F)cccc7F)C6)nn5)cc34)cc12 [Example 247, 5-[4-[1-[(2,6- DIFLUOROPHENYL)METHYL]- 3(R)-PIPERIDINYL]-1H- 1,2,3-TRIAZOL-1-YL]-3′- METHYL-3,5′-BI-1H- INDAZOLE]"
25,0.3 to 10.4,"COc1cccc(F)c1CN1CCC[C@@H](c2nnc(-c3ccc4[nH]nc(-c5ccnc(C)c5)c4c3)o2)C1 [Example 336, 5-[5-[1-[(2-FLUORO-6- METHOXYPHENYL)METHYL]- 3(R)-PIPERIDINYL]-1,3,4- OXADIAZOL-2-YL]-3-(2- METHYL-4-PYRIDINYL)-1H- INDAZOLE]"
26,≥ 504,"Clc1cc(-c2n[nH]c3ccc(-c4nnc([C@@H]5CCCN(Cc6cc7ccccc7s6)C5)o4)cc23)ccn1 [Example 359, 5-[5-[1-(BENZO[b]THIEN-2- YLMETHYL)-3(R)- PIPERIDINYL]-1,3,4- OXADIAZOL-2-YL]-3-(2- CHLORO-4-PYRIDINYL)-1H- INDAZOLE]"
